Reference: ChEMBL document CHEMBL4024745, “Causes and Significance of Increased Compound Potency in Cellular or Physiological Contexts” (J Med Chem, 2018)
pIC50, pKd: −log10 of the molar value.

Tests used:
[1] = Drug metabolism in human MCF7 cells assessed as polyglutamylation of compound at 2 uM after 24 hrs by liquid scintillation counting method; format: ADME, cell-based; details: read-out: Drug metabolism
[2] = Drug metabolism in human MDA231 cells assessed as polyglutamylation of compound at 2 uM after 24 hrs by liquid scintillation counting method; format: ADME, cell-based; details: MDA231 (MDA-MB-231) cells, read-out: Drug metabolism
[3] = Drug metabolism in human ZR-75B cells assessed as polyglutamylation of compound at 2 uM after 24 hrs by liquid scintillation counting method; format: ADME, cell-based; details: read-out: Drug metabolism
Bacterial 70S ribosome = experiment: Binding affinity to Escherichia coli A19 70S ribosome after 30 mins by scintillation counting method
[4] = Binding affinity to Escherichia coli A19 50S ribosome after 30 mins by scintillation counting method
[5] = Binding affinity to Escherichia coli MRE600 50S ribosome after 80 hrs by equilibrium dialysis method
[6] = Inhibition of coupled transcription-translation in Escherichia coli UC6782 […] using ortho-nitrophenyl-beta-galactoside as substrate after 30 mins by spectrophotometry
[7] = Binding affinity to Escherichia coli MRE600 50S ribosome after 10 mins by radioligand binding assay

Compound: CN(Cc1cnc2nc(N)nc(N)c2n1)c1ccc(C(=O)N[C@@H](CCC(=O)O)C(=O)O)cc1 [METHOTREXATE]
- metabolised at 24 h, 2 µM [1]: 55.4%
- metabolised at 24 h, 2 µM [2]: 32%
- metabolised at 24 h, 2 µM [3]: 87.6%

Compound: COC[C@H]1O[C@@H](O[C@@H]2OC[C@@H]3O[C@@]4(OC[C@@H](OC(=O)c5c(C)cc(O)cc5O)[C@@H]5OCO[C@H]54)O[C@H]3[C@H]2O)[C@@H](OC)[C@@H](O)[C@@H]1O[C@@H]1O[C@H](C)[C@H](OC)[C@H](O[C@@H]2O[C@H](C)[C@H]3O[C@]4(C[C@@H](O)[C@H](O[C@H]5C[C@@H](O[C@H]6C[C@](C)([N+](=O)[O-])[C@@H](OC)[C@H](C)O6)[C@H](OC(=O)c6c(C)c(Cl)c(O)c(Cl)c6OC)[C@@H](C)O5)[C@@H](C)O4)O[C@]3(C)[C@@H]2O)[C@H]1O [EVERNIMICIN]
- pKd (Bacterial 70S ribosome): 7.08
- pKd [4]: 6.80

Compound: CCC[C@@H]1C[C@@H](C(=O)N[C@@H]([C@H]2O[C@H](SC)[C@H](O)[C@@H](O)[C@H]2O)[C@@H](C)O)N([14CH3])C1
- pKd [5]: 4.47

Compound: CC(=O)NC[C@H]1CN(c2ccc(N3CCN(C(=O)CO)CC3)c(F)c2)C(=O)O1 [EPEREZOLID]
- pIC50 [6]: 5.74
- pIC50 [7]: 4.70
